According to patent publication US11773078B2, “Furin inhibitors” (Glaxosmithkline Intellectual Property Development Limited, priority 2018, dated 2023):
Where a name gives a salt, the structure may show the parent alone.

What was measured:
[1] = tested on: epithelial sodium channel (ENaC); assay: Transepithelial Electrical Resistance (TEER) assay, primary CF delF508 or non-CF HBE cells (FIG. 6-9); type: cell-based, human; settings: compared to Example 11; only mid-μM concentrations partially effective; FIG. 8 and FIG. 9
Protocol: Primary cultures of CF delF508 or non-CF HBE cells are seeded onto permeable filter supports and grown for 12-14 days for a significant RTE to be measured for TEER assays.
When the ENaC is active under basal conditions (at least in part due to protease cleavage inside the cell or at the apical membrane), there is a finite RTE that is affected by the Na+ current flowing through ENaC heterotrimers (αβγ or δβγ).

[2] = target: T1, Furin (108-574-Tev-Flag-His) enzyme (Homo sapiens, UniProt P09958); assay: Furin enzyme assay; type: biochemical
T1 construct: Furin (108-574-Tev-Flag-His) enzyme was expressed and purified from CHO cells; TEV cleavage site (C); FLAG (C); His (C); made in house; host or cells: CHO cells
T1 sequence (P09958 108-574): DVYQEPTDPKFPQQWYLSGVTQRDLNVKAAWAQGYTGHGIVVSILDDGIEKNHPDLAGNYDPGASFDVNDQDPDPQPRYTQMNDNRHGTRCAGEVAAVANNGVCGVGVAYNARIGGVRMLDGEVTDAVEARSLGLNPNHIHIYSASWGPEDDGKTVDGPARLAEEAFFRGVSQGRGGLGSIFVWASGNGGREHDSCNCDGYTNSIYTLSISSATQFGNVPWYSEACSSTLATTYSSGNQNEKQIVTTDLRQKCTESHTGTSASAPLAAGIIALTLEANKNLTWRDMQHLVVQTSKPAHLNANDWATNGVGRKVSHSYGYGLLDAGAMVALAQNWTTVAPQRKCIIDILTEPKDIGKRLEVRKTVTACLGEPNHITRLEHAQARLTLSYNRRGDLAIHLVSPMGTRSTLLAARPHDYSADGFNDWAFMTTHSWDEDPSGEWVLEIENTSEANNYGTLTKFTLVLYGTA
Summary of the method: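 Compounds ran as 11-point threefold dilutions (0.00017–10 μM final) against 40 pM furin, purified from CHO cells, for 2 h at room temperature. Buffer: 100 mM HEPES pH7.5 with 1 mM CaCl2 and 0.005% Triton X-100. Envision readout. Four-parameter curve gives pXC50.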

[3] = target: T2, furin (endogenous protease) in U20S cells (Homo sapiens, UniProt P09958); assay: Furin cell-based assay (image-based, Golgi-targeted GFP with BMP10 furin/PCSK cleavage site); settings: 24-hour incubation, read-out: furin golgi cell pXC50 (converted);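 note: Read-out is mean GFP fluorescence of Golgi puncta per cell by high-content imaging, retained when furin inhibited, over an eleven-point 0.00017–10 µM series, four-parameter fit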
T2 construct: the endogenous protease cleaves GFP; endogenous in cells; host or cells: U2OS cells transduced with a BacMam reporter
T2 sequence (P09958 108-794): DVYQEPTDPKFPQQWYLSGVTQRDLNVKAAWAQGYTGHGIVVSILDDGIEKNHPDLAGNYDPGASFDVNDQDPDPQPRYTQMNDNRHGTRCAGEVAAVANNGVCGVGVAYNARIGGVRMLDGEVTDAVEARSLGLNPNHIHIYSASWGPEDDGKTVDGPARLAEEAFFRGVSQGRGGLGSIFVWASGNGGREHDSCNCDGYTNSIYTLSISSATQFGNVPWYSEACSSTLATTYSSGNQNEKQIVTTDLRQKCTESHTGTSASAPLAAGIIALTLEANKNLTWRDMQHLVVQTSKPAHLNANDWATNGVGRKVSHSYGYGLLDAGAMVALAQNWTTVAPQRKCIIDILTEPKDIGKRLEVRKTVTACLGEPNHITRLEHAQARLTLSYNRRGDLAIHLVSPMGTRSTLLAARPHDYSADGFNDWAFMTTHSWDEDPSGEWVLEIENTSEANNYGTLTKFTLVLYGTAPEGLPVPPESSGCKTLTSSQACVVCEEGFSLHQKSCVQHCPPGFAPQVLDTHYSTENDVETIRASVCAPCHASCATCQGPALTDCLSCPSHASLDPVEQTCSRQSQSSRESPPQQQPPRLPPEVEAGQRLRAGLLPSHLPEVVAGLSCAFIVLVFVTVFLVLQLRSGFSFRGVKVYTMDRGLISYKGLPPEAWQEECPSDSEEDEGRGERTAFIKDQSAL

[4] = tested on: hydroxyproline (a specific marker for collagen) in mouse lung; assay: Bleomycin induced lung fibrosis model: hydroxyproline assay; type: in vivo; settings: relative to levels induced by Bleomycin in vehicle treated animals, *p < 0.05
Protocol: (§1) Preclinical pulmonary fibrosis can be induced by single instillation of Bleomycin to the mouse lung. A 15-day Bleomycin protocol was developed to evaluate compounds of the invention in vivo for their ability to inhibit TGFβ secretion and collagen deposition in the mouse lung. On the day before Bleomycin instillation, compounds were administrated to mice based on the appropriate route and frequency. On the study initiation day, under Ketamine (80 mg/kg) and Xylazine (10 mg/kg) anesthesia, all the animals were cannulated oro-tracheally and 50 μL of normal saline (Sham control) or 0.03 U Bleomycin in 50 μL saline (all groups except sham control group) was delivered into the trachea. Compounds were dosed daily until the end of study on Day 15. On termination day, animals were euthanized using CO2 inhalation. The right lung was collected, washed in normal saline, weighed, flash frozen in liquid nitrogen and stored at −80° C. for hydroxyproline (a specific marker for collagen) and TGFβ assays.
(§2) Flash frozen whole right lung tissues were homogenized in 500 μL of RIPA buffer containing PMSF and protease inhibitor cocktail using zirconium oxide bead based homogenizer (Bullet blender Gold, NextAdvance, Germany). Briefly, tissues were spun in the homogenizer at 4° C. for three cycles of 10 minutes each at 1000 g. A complete uniform tissue mixture was obtained using this procedure. The homogenate volume was made up to 1.5 mL by adding 1 mL of RIPA buffer containing PMSF and protease inhibitor cocktail to 500 μL of homogenate. The homogenate was stored as aliquots of 100-500 μL each at −80° C.
Acid hydrolysis: 500 μL of the homogenized lung parenchyma was transferred to glass vials, and an equal volume of 12N HCl was added (final concentration of HCl: 6N). The vials were purged with nitrogen gas, sealed and incubated overnight (16 h) under anoxic conditions at 110° C.
Post incubation procedures: 35 μL of the sample from each tube or standard (prepared by serial dilution of hydroxyproline stock solution) was added onto a 96 well plate and the assay was performed as per the kit protocol (Quickzyme Biosciences: Cat #: QZBHYPR05). After the final color development, absorbance was measured by colorimetric analysis at 570 nm (using Thermoscan spectrum (Plate Reader) and results were recorded. Standard curve (linear graph) was generated by using hydroxyproline standards provided in the Quickzyme kit.

[5] = tested on: TGFβ in mouse lung; assay: Bleomycin induced lung fibrosis model: TGFβ assay; type: in vivo; settings: relative to levels induced by Bleomycin in vehicle treated animals, *p < 0.05
Protocol: as §1, §2
Lung tissue homogenates (500 μL) were spun at 13,000 rpm for 20 minutes at 4° C. and supernatants were collected for TGFβ estimation. The assay was performed according to the manufacturer's manual (R&D systems: Cat #SMB100B). Briefly, the lung homogenates were activated by acid activation followed by neutralization to convert latent TGFβ to active TGFβ and the total TGFβ levels in supernatants were measured. Total protein levels in the lung supernatant were also determined.

[6] = 10 mg/kg, Intra-peritoneal, Once daily
[7] = 10 mg/kg, Intra-peritoneal, Twice daily

furin enzyme pIC50 [2]	EC50 [3] [µM]	SMILES	% inhibition of hydroxyproline in lung ([4]; 30 mg/kg, Oral, Once daily)	% inhibition of total TGFβ in lung ([5]; 30 mg/kg, Oral, Once daily)	% inhibition of hydroxyproline in lung ([4]; 10 mg/kg, Oral, Once daily)	% inhibition of total TGFβ in lung ([5]; 10 mg/kg, Oral, Once daily)	further results
9	0.00631	CN1CCCN(c2ncc(Oc3cc(CN4CCC(CC(=O)O)CC4)cc(-c4cc(Cl)cc(Cl)c4)n3)cn2)CC1 [Example 126, 2-(1-((2-(3,5-Dichlorophenyl)-6-((2-(4-methyl-1,4-diazepan-1-yl)pyrimidin-5-yl)oxy)pyridin-4-yl)methyl)piperidin-4-yl)acetic acid]	36* %	34* %			
8.6	0.0251	O=C(O)CC1CCN(Cc2cc(Oc3cnc(N4CCNCC4)nc3)nc(-c3cc(Cl)cc(Cl)c3)c2)CC1 [Example 206, 2-(1-((2-(3,5-Dichlorophenyl)-6-((2-(piperazin-1-yl)pyrimidin-5-yl)oxy)pyridin-4-yl)methyl)piperidin-4-yl)acetic acid]			6%	−11%	
8.6	0.0251	CS(=O)(=O)CCCN1CCN(c2ncc(Oc3cc(CN4CCC(CC(=O)O)CC4)cc(-c4cc(Cl)cc(Cl)c4)n3)cn2)CC1 [Example 242, 2-(1-((2-(3,5-Dichlorophenyl)-6-((2-(4-(3-(methylsulfonyl)propyl)piperazin-1-yl)pyrimidin-5-yl)oxy)pyridin-4-yl)methyl)piperidin-4-yl)acetic acid]			−1%	40* %	
9.2	0.02	C[C@@H](O)CN1CCN(c2ncc(Oc3cc(CN4CCC(CC(=O)O)CC4)cc(-c4cc(Cl)cc(Cl)c4)n3)cn2)CC1 [Example 298, (R)-2-(1-((2-(3,5-Dichlorophenyl)-6-((2-(4-(2-hydroxypropyl)piperazin-1-yl)pyrimidin-5-yl)oxy)pyridin-4-yl)methyl)piperidin-4-yl)acetic acid]			16* %	23* %	
8.9	0.0251	O=C(O)CC1CCN(Cc2cc(Oc3cnc(N4CCN(CCO)CC4)nc3)nc(-c3cc(Cl)cc(Cl)c3)c2)CC1 [Example 306, 2-(1-((2-(3,5-dichlorophenyl)-6-((2-(4-(2-hydroxyethyl)piperazin-1-yl)pyrimidin-5-yl)oxy)pyridin-4-yl)methyl)piperidin-4-yl)acetic acid]			11%	31* %	
8.9	0.02	O=C(O)CC1CCN(Cc2cc(Oc3cnc(N4CCN5CCC4C5)nc3)nc(-c3cc(Cl)cc(Cl)c3)c2)CC1 (stereo not shown) [Example 334, 2-(1-((2-((2-(1,4-Diazabicyclo[3.2.1]octan-4-yl)pyrimidin-5-yl)oxy)-6-(3,5-dichlorophenyl)pyridin-4-yl)methyl)piperidin-4-yl)acetic acid, 4 hydrochloride]	34* %	36* %			
8.7	0.0501	CN1CCN(c2cnc(Oc3cc(CN4CCC(CC(=O)O)CC4)cc(-c4cc(Cl)cc(Cl)c4)n3)cn2)CC1 [Example 339, 2-(1-((2-(3,5-Dichlorophenyl)-6-((5-(4-methylpiperazin-1-yl)pyrazin-2-yl)oxy)pyridin-4-yl)methyl)piperidin-4-yl)acetic acid]			4%	22%	

Continued, molecule first:

SMILES	furin enzyme pIC50 [2]	EC50 [3] [µM]	% inhibition of hydroxyproline in lung ([4]; 30 mg/kg, Oral, Once daily)	% inhibition of total TGFβ in lung ([5]; 30 mg/kg, Oral, Once daily)	% inhibition of hydroxyproline in lung ([4]; 10 mg/kg, Oral, Once daily)	% inhibition of total TGFβ in lung ([5]; 10 mg/kg, Oral, Once daily)	further results
CN(C)C(=O)COC(=O)Cc1ccc(OC(=O)c2ccc(NC(=N)N)cc2)cc1 [Camostat mesylate, reference compound]							inhibitory effect in TEER assay [1]: only partially inhibitory and modestly Inhibitory
COC(=O)NCC1CCN(Cc2cc(Oc3cnc(N4CCN(CCC(=O)O)CC4)nc3)nc(-c3cc(Cl)cc(Cl)c3)c2)CC1 [Example 62, 3-(4-(5-((6-(3,5-Dichlorophenyl)-4-1(4-(((methoxycarbonyl)amino)methyl)piperidin-1-yl)methyl)pyridin-2-yl)oxy)pyrimidin-2-yl)piperazin-1-yl)propanoic acid, 4 hydrochloride]	9.8	0.0316	−14%	7%			
CC(=O)NCC1CCN(Cc2cc(Oc3ccc(N4CCN(CCO)CC4)nc3)nc(-c3cc(Cl)cc(Cl)c3)c2)CC1 [Example 180, N-((1-((2-(3,5-Dichlorophenyl)-6-((6-(4-(2-hydroxyethyl)piperazin-1-yl)pyridin-3-yl)oxy)pyridin-4-yl)methyl)piperidin-4-yl)methyl)acetamide]	9.1	0.00316					% inhibition of hydroxyproline in lung [4, 6]: 56* %; % inhibition of total TGFβ in lung [5, 6]: 60* %
CC(=O)NCC1CCN(Cc2cc(Oc3cnc(N4CCN(CCC(=O)O)CC4)nc3)nc(-c3cc(Cl)cc(Cl)c3)c2)CC1 [Example 263, 3-(4-(5-((4-((4-(acetamidomethyl)piperidin-1-yl)methyl)-6-(3,5-dichlorophenyl)pyridin-2-yl)oxy)pyrimidin-2-yl)piperazin-1-yl)propanoic acid]	9.8	0.01					% inhibition of hydroxyproline in lung [4, 7]: 60* %; % inhibition of total TGFβ in lung [5, 7]: 86* %
CN1CCCN(c2cnc(Oc3cc(CN4CCC(CC(=O)O)CC4)cc(-c4cc(Cl)cc(Cl)c4)n3)cn2)CC1 [Example 340, 2-(1-((2-(3,5-dichlorophenyl)-6-((5-(4-methyl-1,4-diazepan-1-yl)pyrazin-2-yl)oxy)pyridin-4-yl)methyl)piperidin-4-yl)acetic acid]	8.8	0.02	21* %	26* %			
CC(=O)NCC1CCN(Cc2cc(Oc3cnc(N4CCN(CCC(C)C(=O)O)CC4)nc3)nc(-c3cc(Cl)cc(Cl)c3)c2)CC1 (stereo not shown) [Example 369, 4-(4-(5-((4-((4-(Acetamidomethyl)piperidin-1-yl)methyl)-6-(3,5-dichlorophenyl)pyridin-2-yl)oxy)pyrimidin-2-yl)piperazin-1-yl)-2-methylbutanoic acid, 4 hydrochloride]	9.3	0.00501			62* %	75* %	
